The results in this text go back to patent US8778919B2, “Cyclic anilino—pyridinotriazines” (Janssen Pharmaceutica NV, priority 2005, dated 2014).

Type in all cases: biochemical
Test [1] deals with GSK-3α (Homo sapiens, UniProt P49840). As to the kind of experiment: GSK-3 kinase assay (C1), GSK-3α. Particulars: 1 μM ATP, read-out: C1 Score α. The method, then:
(§1) In vitro GSK-3 assays were performed at room temperature in a 100 μl reaction volume of 25 mM Tris (pH 7.4) containing 10 mM MgCl2.6H2O, 1 mM DTT, 0.1 mg/ml BSA, 5% glycerol, 5.7 ng/μl GSK-3β or 0.25 ng/μl GSK-3α, 5 μM biotinylated CREB peptide, 1 μM ATP, 0.85 μCi/ml ^33P-ATP and a suitable amount of a test compound. After one hour, the reaction was terminated by adding 70 μl of Stop mix (0.1 mM ATP, 5 mg/ml streptavidin coated PVT SPA beads, pH 11.0). The beads were allowed to settle overnight and the radioactivity attached to the beads was counted in a microtiter plate scintillation counter and compared with the results obtained in a control experiment (without the presence of a test compound) in order to determine the percentage of GSK-3 inhibition. The IC50 value, i.e. the concentration (M) of the test compound at which 50% of GSK-3 is inhibited, was calculated from the dose response curve obtained by performing the above-described GSK-3 assay in the presence of different amounts of the test compound. Score 1=pIC50 value<6, Score 2=pIC50 value from 6-7, Score 3=pIC50 value from 7-8, Score 4=pIC50 value>8.

Test [2] deals with GSK-3β (Homo sapiens, UniProt P49841). As to the kind of experiment: GSK-3 kinase assay (C1), GSK-3β. As to conditions: 1 μM ATP; for IC50: read-out: C1 Score β. The method, then:
as §1

In test [3] the target is CDK1/cyclinB (h) (Homo sapiens, UniProt P06493). The test is described as follows: Kinase profiling C3.2 CDK1/cyclinB human. As to conditions: test concentration of 10^−6 M. The method, then: (§2) The in vitro inhibition of a panel of kinases was assessed using either the glass-fiber filter technology as described by Davies, S. P. et al., Biochem J. (2000), 351; p. 95-105. In the glass-fiber filter technology the activity of the kinase of interest is measured using an appropriate substrate that is incubated with the aforementioned kinase protein in the presence of (^33P) radiolabeled ATP. (^33P) Phosporylation of the substrate is subsequently measured as radioactivity bound on a glassfiber-filter.
Chain of CDK1/cyclinB (h) (P06493 whole entry): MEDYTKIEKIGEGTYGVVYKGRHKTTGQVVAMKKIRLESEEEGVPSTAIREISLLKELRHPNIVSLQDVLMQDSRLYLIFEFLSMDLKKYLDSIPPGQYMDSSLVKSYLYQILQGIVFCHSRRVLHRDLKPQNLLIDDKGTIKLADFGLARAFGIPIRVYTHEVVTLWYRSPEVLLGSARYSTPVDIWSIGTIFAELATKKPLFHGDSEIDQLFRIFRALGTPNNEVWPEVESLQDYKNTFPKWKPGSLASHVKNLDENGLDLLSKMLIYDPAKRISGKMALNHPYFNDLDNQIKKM
Chain of CDK1/cyclinB (h) (P14635 whole entry partner): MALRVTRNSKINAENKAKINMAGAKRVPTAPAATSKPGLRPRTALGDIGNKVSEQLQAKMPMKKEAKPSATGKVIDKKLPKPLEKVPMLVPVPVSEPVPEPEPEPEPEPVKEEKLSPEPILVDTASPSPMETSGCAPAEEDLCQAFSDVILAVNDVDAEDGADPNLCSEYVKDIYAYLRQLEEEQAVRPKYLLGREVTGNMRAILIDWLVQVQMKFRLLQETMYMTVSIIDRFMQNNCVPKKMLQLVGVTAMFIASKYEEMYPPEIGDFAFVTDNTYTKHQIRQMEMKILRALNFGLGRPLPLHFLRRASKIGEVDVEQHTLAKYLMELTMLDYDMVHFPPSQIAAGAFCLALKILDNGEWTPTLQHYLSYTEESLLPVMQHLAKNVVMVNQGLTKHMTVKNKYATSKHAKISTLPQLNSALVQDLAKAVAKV
(§3) All kinases are pre-diluted to a 10× working concentration prior to addition into the assay. The composition of the dilution buffer for each kinase is detailed below.
(§4) All substrates are dissolved and diluted to working stocks in de-ionised water, apart from histone H1 that is stored in 10× working stock in 20 mM MOPS pH 7.4.
(§5) In a final reaction volume of 25 μl, CDK1/cyclinB (h) (5-10 mU) is incubated with 8 mM MOPS pH 7.0, 0.2 mM EDTA, 0.1 mg/ml histone H1, 10 mM MgAcetate and [γ-^33P-ATP] (specific activity approx. 500 cpm/pmol, concentration as required). The reaction is initiated by the addition of the MgATP mix. After incubation for 40 minutes at room temperature, the reaction is stopped by the addition of 5 μl of a 3% phosphoric acid solution. 10 μl of the reaction is then spotted onto a P30 filtermat and washed three times for 5 minutes in 75 mM phosphoric acid and once in methanol prior to drying and scintillation counting.

The target in test [4] is CDK2/cyclinA (h) (Homo sapiens, UniProt P24941). As to the kind of experiment: Kinase profiling C3.3 CDK2/cyclinA human. As to conditions: test concentration of 10^−6 M. The method, then: as §2, §3, §4
as §5, with “CDK2/cyclinA” for “CDK1/cyclinB”

Test [5] deals with CDK2/cyclinE (h) (Homo sapiens, UniProt P24941). The test is described as follows: Kinase profiling C3.4 CDK2/cyclinE human. Particulars: test concentration of 10^−6 M. The method, then:
as §2, §3, §4
as §5, with “CDK2/cyclinE” for “CDK1/cyclinB”

Test [6] concerns the target CDK3/cyclinE (h) (Homo sapiens, UniProt Q00526). As to the kind of experiment: Kinase profiling C3.5 CDK3/cyclinE human. As to conditions: test concentration of 10^−6 M. As for the experimental part:
as §2, §3, §4
as §5, with “CDK3/cyclinE” for “CDK1/cyclinB”

The target in test [7] is CDK5/p35 human (Homo sapiens, UniProt Q00535). As to the kind of experiment: Kinase profiling C3.6 CDK5/p35 human. As to conditions: CDK5/p35, test concentration of 10^−6 M. The method, then: as §2, §3, §4
Chain of CDK5/p35 human (Q00535 whole entry): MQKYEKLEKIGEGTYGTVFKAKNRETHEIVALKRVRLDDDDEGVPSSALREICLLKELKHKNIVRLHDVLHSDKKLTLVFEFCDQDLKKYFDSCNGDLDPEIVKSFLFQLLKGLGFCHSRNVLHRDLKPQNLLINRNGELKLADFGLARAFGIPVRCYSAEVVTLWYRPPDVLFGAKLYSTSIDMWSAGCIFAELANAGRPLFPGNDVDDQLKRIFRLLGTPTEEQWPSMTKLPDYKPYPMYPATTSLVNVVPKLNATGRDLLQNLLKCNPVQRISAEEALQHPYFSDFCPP
Chain of CDK5/p35 human (Q15078 whole entry partner): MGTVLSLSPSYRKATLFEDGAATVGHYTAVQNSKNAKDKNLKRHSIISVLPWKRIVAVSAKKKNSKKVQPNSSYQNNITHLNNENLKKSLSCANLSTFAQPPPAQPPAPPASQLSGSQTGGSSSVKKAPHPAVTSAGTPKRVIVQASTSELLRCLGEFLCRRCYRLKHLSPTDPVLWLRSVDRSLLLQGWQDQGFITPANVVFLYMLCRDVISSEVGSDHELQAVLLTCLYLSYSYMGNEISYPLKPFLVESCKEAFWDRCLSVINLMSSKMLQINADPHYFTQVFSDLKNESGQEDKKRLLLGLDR
as §5, with “CDK5/p35 human” for “CDK1/cyclinB (h)”

Test [8] concerns the target CDK6/cyclinD3 human (Homo sapiens, UniProt Q00534). As to the kind of experiment: Kinase profiling C3.7 CDK6/cyclinD3 human. Particulars: CDK6/cyclinD3, test concentration of 10^−6 M. As for the experimental part:
as §2, §3, §4
as §5, with “CDK6/cyclinD3 human” for “CDK1/cyclinB (h)”

The target in test [9] is CDK7/cyclinH/MAT1 (h) (Homo sapiens, UniProt P50613). The test is described as follows: Kinase profiling C3.8 CDK7/cyclinH/MAT1 human. As to conditions: CDK7/cyclinH/MAT1, test concentration of 10^−6 M. The method, then:
as §2, §3, §4
as §5, with “CDK7/cyclinH/MAT1” for “CDK1/cyclinB”, “500 μM peptide,” for “0.1 mg/ml histone H1,”

SMILES strings stand for the structures.

Chain of GSK-3β (P49841 whole entry, species assumed): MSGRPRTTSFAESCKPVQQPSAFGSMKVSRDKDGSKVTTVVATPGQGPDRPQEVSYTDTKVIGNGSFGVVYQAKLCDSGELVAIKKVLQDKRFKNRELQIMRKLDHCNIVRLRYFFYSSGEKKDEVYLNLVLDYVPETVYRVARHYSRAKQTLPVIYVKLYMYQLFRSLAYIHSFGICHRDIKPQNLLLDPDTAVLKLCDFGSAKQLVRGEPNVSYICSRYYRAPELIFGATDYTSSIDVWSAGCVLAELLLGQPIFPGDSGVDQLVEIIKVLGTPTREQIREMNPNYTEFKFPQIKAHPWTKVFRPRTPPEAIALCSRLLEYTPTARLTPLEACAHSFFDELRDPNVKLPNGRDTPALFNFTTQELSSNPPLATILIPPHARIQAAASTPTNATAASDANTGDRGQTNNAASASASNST
Chain of CDK6/cyclinD3 human (Q00534 whole entry): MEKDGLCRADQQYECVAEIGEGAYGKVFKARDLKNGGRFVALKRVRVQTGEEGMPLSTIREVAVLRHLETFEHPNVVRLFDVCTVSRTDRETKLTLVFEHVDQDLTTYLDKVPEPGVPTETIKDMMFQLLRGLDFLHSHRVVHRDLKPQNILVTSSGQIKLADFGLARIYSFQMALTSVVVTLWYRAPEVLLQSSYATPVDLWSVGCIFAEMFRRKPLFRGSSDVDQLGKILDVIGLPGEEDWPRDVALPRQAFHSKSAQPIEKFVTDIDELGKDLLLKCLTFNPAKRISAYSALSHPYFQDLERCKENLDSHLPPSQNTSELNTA
Chain of CDK6/cyclinD3 human (P30281 whole entry partner): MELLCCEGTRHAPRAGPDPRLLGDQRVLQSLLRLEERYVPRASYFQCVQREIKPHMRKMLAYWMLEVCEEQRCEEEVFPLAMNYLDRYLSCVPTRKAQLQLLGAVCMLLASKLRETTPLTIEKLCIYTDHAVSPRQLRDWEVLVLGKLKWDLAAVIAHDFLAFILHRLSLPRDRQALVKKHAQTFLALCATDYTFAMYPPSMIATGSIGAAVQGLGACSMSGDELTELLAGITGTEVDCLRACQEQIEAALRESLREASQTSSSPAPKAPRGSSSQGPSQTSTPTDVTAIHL
Chain of CDK7/cyclinH/MAT1 (h) (P50613 whole entry): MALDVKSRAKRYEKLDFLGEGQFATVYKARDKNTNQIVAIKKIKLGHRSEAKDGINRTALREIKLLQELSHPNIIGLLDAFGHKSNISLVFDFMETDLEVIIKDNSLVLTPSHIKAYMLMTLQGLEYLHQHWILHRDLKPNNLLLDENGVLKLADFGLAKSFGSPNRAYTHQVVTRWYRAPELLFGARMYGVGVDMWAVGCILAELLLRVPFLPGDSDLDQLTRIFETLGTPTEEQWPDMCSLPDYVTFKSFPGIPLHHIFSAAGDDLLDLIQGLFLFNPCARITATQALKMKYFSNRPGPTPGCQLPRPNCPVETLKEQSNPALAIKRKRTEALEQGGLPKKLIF
Chain of CDK7/cyclinH/MAT1 (h) (P51946 whole entry partner): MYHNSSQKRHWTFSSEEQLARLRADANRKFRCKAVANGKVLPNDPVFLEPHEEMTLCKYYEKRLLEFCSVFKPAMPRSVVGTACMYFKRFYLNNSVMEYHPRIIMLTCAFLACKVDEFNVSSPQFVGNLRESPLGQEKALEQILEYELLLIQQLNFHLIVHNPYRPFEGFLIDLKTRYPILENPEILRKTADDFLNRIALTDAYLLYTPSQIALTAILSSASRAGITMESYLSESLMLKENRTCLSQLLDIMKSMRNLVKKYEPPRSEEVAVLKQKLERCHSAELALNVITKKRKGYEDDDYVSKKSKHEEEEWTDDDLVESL
Chain of CDK7/cyclinH/MAT1 (h) (P51948 whole entry partner): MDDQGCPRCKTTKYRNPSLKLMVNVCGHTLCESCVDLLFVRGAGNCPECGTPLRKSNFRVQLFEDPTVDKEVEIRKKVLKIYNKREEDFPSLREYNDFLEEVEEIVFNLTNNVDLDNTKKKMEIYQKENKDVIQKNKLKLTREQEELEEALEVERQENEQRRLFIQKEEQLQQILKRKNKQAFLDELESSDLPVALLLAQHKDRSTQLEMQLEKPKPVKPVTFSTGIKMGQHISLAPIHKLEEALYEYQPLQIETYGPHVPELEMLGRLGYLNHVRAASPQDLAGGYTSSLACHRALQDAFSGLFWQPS
Chain of GSK-3α (P49840 whole entry, species assumed): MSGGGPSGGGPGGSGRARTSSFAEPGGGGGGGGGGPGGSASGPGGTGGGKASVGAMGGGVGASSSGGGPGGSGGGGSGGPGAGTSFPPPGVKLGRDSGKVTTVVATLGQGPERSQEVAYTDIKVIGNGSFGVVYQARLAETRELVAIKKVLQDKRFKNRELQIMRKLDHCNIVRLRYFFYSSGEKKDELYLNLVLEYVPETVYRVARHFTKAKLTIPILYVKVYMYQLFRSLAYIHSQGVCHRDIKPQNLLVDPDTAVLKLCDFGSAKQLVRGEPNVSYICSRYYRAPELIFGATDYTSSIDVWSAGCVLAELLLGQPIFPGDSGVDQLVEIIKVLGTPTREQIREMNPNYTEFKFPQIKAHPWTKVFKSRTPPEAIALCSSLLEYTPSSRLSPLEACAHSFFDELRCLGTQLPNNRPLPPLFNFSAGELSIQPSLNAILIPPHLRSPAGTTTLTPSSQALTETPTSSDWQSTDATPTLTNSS

For the compound `CN1CCCC(=O)NCCc2cccc(c2)Nc2ncnc(n2)-c2ccnc(c2)CCC1` [Compound 24], the results for the IC50 in [1] and in test [2] were 100 to 1000 nM and 10 to 100 nM, respectively. Further, the C3.2 score in [3] was 2 (Score 2 = 30-60% inhibition). Besides, in [4], the C3.3 score is 3 (Score 3 = 60-80% inhibition). For the same compound, in test [5], the C3.4 score was 3 (Score 3 = 60-80% inhibition). In test [6], the C3.5 score is given as 2 (Score 2 = 30-60% inhibition). The C3.6 score in test [7] is reported as 2 (Score 2 = 30-60% inhibition). Also, the C3.7 score in test [8] was 1 (Score 1 = 10-30% inhibition). Moreover, in [9], the C3.8 score was 3 (Score 3 = 60-80% inhibition).
Take `CN1CCC(=O)NCCCc2cc(ccn2)-c2ncnc(n2)Nc2cc(Cl)cc(c2)C1` [Compound 32]: the IC50 in test [1] and in test [2] was 10 to 100 nM throughout. Further, the C3.2 score in test [3] is given as 4 (Score 4 = >80% inhibition). Further, the C3.3 score in test [4] is on record as 4 (Score 4 = >80% inhibition). Moreover, the C3.4 score in [5] was 4 (Score 4 = >80% inhibition). Also, the C3.5 score in [6] is 3 (Score 3 = 60-80% inhibition). The C3.6 score in [7] was 4 (Score 4 = >80% inhibition). Moreover, the C3.7 score in test [8] is 1 (Score 1 = 10-30% inhibition). Besides, the C3.8 score in test [9] was 2 (Score 2 = 30-60% inhibition).
For `O=C1CC2CCN(CCCc3cc(ccn3)-c3ncnc(n3)Nc3cccc(c3)CCN1)CC2` [Compound 27], the IC50 in [1] and in [2] was 100 to 1000 nM each time. For the same compound, the C3.2 score in test [3] is 2 (Score 2 = 30-60% inhibition). In addition, the C3.3 score in test [4] is on record as 3 (Score 3 = 60-80% inhibition). In test [5], the C3.4 score was 2 (Score 2 = 30-60% inhibition). Moreover, the C3.5 score in test [6] is 1 (Score 1 = 10-30% inhibition). Further, in test [7], the C3.6 score is listed as 2 (Score 2 = 30-60% inhibition). Besides, the C3.7 score in test [8] is 1 (Score 1 = 10-30% inhibition). Besides, in test [9], the C3.8 score is reported as 1 (Score 1 = 10-30% inhibition).
Regarding `O=C1NCCc2cccc(c2)Nc2ncnc(n2)-c2ccnc(c2)CCCN2C[C@H](O)C[C@@H]12` [Compound 25], the IC50 in test [1] and in test [2] was 10 to 100 nM each time. Further, the C3.2 score in test [3] is 3 (Score 3 = 60-80% inhibition). Moreover, the C3.3 score in test [4] is 4 (Score 4 = >80% inhibition). Besides, the C3.4 score in test [5] was 4 (Score 4 = >80% inhibition). Besides, in [6], the C3.5 score is 3 (Score 3 = 60-80% inhibition). The C3.6 score in [7] was 2 (Score 2 = 30-60% inhibition). Also, the C3.7 score in [8] is 2 (Score 2 = 30-60% inhibition). Moreover, the C3.8 score in [9] is reported as 2 (Score 2 = 30-60% inhibition).
For the compound `O=C1CCN2CCN(CC2)Cc2cc(Cl)cc(c2)Nc2ncnc(n2)-c2ccnc(c2)CCCN1` [Compound 37], the IC50 in [1] and in [2] was 10 to 100 nM in each case. Moreover, the C3.2 score in [3] is recorded as 4 (Score 4 = >80% inhibition). The C3.3 score in test [4] is given as 4 (Score 4 = >80% inhibition). Also, in [5], the C3.4 score is 4 (Score 4 = >80% inhibition). In addition, in [6], the C3.5 score is on record as 4 (Score 4 = >80% inhibition). For the same compound, the C3.6 score in [7] is recorded as 4 (Score 4 = >80% inhibition). Besides, the C3.7 score in test [8] is listed as 2 (Score 2 = 30-60% inhibition). Further, the C3.8 score in test [9] is on record as 3 (Score 3 = 60-80% inhibition).
For the compound `CN1CCC(=O)NCCNc2cc(ccn2)-c2ncnc(n2)Nc2cccc(c2)C1` [Compound 20], the IC50 in test [1] was 100 to 1000 nM. Further, the “C1 Score β” value in test [2] is on record as 3 (Score 3=pIC50 value from 7-8). Moreover, the C3.2 score in [3] was 3 (Score 3 = 60-80% inhibition). For the same compound, in test [4], the C3.3 score is 4 (Score 4 = >80% inhibition). In addition, the C3.4 score in test [5] is reported as 4 (Score 4 = >80% inhibition). In addition, the C3.5 score in test [6] is reported as 4 (Score 4 = >80% inhibition). In addition, in test [7], the C3.6 score was 3 (Score 3 = 60-80% inhibition). The C3.7 score in test [8] is listed as 1 (Score 1 = 10-30% inhibition). Also, the C3.8 score in [9] is given as 2 (Score 2 = 30-60% inhibition).
Regarding `O=C1NCCCNc2cc(ccn2)-c2ncnc(n2)Nc2cccc(c2)CN2CCC[C@@H]12` [Compound 21], the IC50 in test [1] and in test [2] was 100 to 1000 nM in each case. In addition, the C3.2 score in test [3] is given as 4 (Score 4 = >80% inhibition). Moreover, the C3.3 score in test [4] is recorded as 4 (Score 4 = >80% inhibition). In test [5], the C3.4 score is listed as 4 (Score 4 = >80% inhibition). For the same compound, the C3.5 score in test [6] is 4 (Score 4 = >80% inhibition). Also, the C3.6 score in [7] is 3 (Score 3 = 60-80% inhibition). In test [8], the C3.7 score is 1 (Score 1 = 10-30% inhibition). Further, in test [9], the C3.8 score is given as 2 (Score 2 = 30-60% inhibition).
